The values below come from patent US9394327B1, “Nucleoside crystals, crystal nucleation and growth control with antifreeze proteins” (The Trustees of California State University, priority 2013, dated 2016).

A short description of series [1]: Stability of m^5U crystal forms left in air at room temperature. In kind it is physicochemical. From the text: The only previously known crystalline form of m^5U is its hemihydrate crystal, designated form I, which was crystallized exclusively by evaporation from the supersaturated aqueous solutions. By using DAFP-1 as an additive, remarkably, we were able to control the crystallization of m^5U and discover a new, less thermodynamically and kinetically preferred form, m^5U dihydrate crystal, designated form II. Forms I and II crystals are readily distinguished from each other by their morphology and stability. Form I crystals are needle-like in appearance (FIG. 16(a)) and there was no change (in the appearance, single crystal X-ray diffraction pattern, or DSC profile) of the crystals after being left in air at room temperature for more than 24 months. Form II crystals are block-shaped (FIG. 16(b)) and became white opaque powders/blocks in 2 months. The resulting solids were not suitable for single-crystal X-ray diffraction.

Series [2] in a line: Crystallization and crystallization kinetics of m^5U form I and form II from supersaturated solution. In kind it is physicochemical. The conditions noted are these: for Day the crystallization completes / Day the crystallization starts: 595 mM m^5U, form I in absence of DAFP-1, form II in presence of DAFP-1 (additive/m^5U 5×10^−6); for Average crystal growth rate: estimated from mass increase of crystals, form I without, form II with DAFP-1; for Crystal morphology of the form: optical micrographs. Here is the method:
Supersaturated m^5U aqueous solutions (0.6 M) were made at 30° C. and filtered as soon as possible. Crystals were not grown after the temperature dropped to room temperature for a few days. On day 1, to each sample vial was added 600 μL of 0.6 M m^5U solution, and then 5 μL of water or DAFP solution were added into the vial. The vials were gently swirled after the additions. The resulting m^5U concentration was 595 mM in each vial and additive/m^5U molar ratios (×10^−6) were either 0 or 5. The sample vials were left open in the air at room temperature and three observations at least were recorded per day (every 8 hours) until the solutions in all the vials were dry. The above experiments were repeated five times. Optical micrographs were taken under Nikon SMZ800 microscope with a Nikon Coolpix 5400 when the crystallization completed. Under the above conditions, only form I crystalline m^5U was able to grow in the absence of DAFP-1; however, in the presence of DAFP-1, form II crystalline m^5U was grown exclusively. The kinetics of crystallization of m^5U form I and form II, respectively, was estimated based on the rate of the weight of the occurring crystals and the initial weight of m^5U in the specific vial. All the liquid in the vial was collected gently and the weight of the vial or the vial with crystals was measured. After the measurement, the collected liquid was put back into the vial and the crystallization continued. The weights were measured on an Ohaus Discovery semi-micro analytical balance at 9 am every day until the crystallization finished. The experiments were repeated on three vials and the average values were reported.

The nature of series [3]: DSC thermodynamic stability analysis of m^5U forms. In kind it is physicochemical. Here is the method:
Thermodynamic Stability Analysis. Both forms of m^5U were analyzed by DSC (FIG. 20). […] The first endotherm associated with water loss is at 139.07° C., whereas the second endotherm ascribed to the melting is at 185.65° C. […] Form II starts losing water and then melts at relatively lower temperatures than those of form I. The enthalpy profiles for both forms are compared in FIG. 21.
All experiments were performed with a DSC 1 (Mettler Toledo, Ohio). An indium standard (Mettler Toledo, Ohio) was used to calibrate the instrument. Samples weighed 3-4 mg and were hermetically encapsulated in standard aluminum sample pans with pierced lids to release any pressure build-up during the experiments. The samples were heated from 25 to 200° C. at a rate of 5° C./min.
(In general: In DSC, transitions show as peaks or steps in heat flow.)

Series [4] is described as follows: Crystallization of trehalose dihydrate by diffusing ethanol, with DAFP-1. In kind it is physicochemical. The conditions noted are these: without additive. From the text: Similarly, we crystallized trehalose dihydrate crystals by diffusing ethanol into the aqueous ethanol solution of trehalose directly. The protein:trehalose molar ratio (×10^−5) was 9.0 in FIG. 24(b) The crystals formed in the presence of DAFP-1 show a dramatic decrease in size as compared to the crystals obtained without additive.

A short description of series [5]: Crystal growth of I by evaporation of aqueous solution, no seed crystals, with polypeptide additives. The series is classed as physicochemical. How it is done: (§1) We obtained the crystals of m^5U, C, and I, respectively, by evaporation of their aqueous solutions at room temperature. m^5U was known to be crystallized from aqueous ethanol solutions. […] On day 1, each sample vial was first added 600 μL of 400 mM m^5U solution. Then 20 μL of water or polypeptide solutions at certain concentrations were added into each vial. The final m^5U concentration was 387 mM in each vial. The additive/m^5U molar ratios (×10^−5) were varied from 0, 0.04, 0.4, 1.0, 1.2, 3.0, 4.0, 7.8, and 9.0. The vials were gently swirled after the addition and were left open in the air at the room temperature. At least three observations were recorded per day (every 8 hours) until the solutions in all the vials were dry. The experiments were repeated five times (Table 1).
(§2) In previous reports, crystals of C were prepared by evaporating of its aqueous ethanol solutions. Here we obtained C crystals by evaporation of its aqueous solution. […] By slowly evaporating its aqueous solution at 20° C., the pure α-form I crystals were obtained. The experimental procedures for C and I were similar to those described above for m^5U, while the concentrations of C and I solutions were 252 mM and 92 mM, respectively, in each sample vial on day 1 and the additive/C molar ratios (×10^−5) were varied from 0, 0.04, 0.4, 1.0, 1.2, 3.0, 4.0, 7.9, and 10.0 and the additive/I molar ratios (×10^−5) were varied from 0, 0.05, 0.5, 1.1, 2.2, 4.4, 8.1, 10.8, and 21.7. Photos of the vials were taken with a Canon EOS 30D camera during the crystallization process and when the process finished. Optical micrographs were taken under Nikon SMZ800 microscope with a Nikon Coolpix 5400 when the crystallization completed. […]
(§3) Powder X-ray diffraction (PXRD) data were collected at room temperature on a Rigaku Mini Flex II desktop diffractometer using Cu Kα radiation (30 kV, 15 mA) with a 2θ range of 5°-50°, a step size of 0.010°, and a step time of 2 s. […] The same amount of the resulting powders was then mounted and analyzed on a front loading sample holder.

For series [6] the following is noted: copper sulfate pentahydrate aqueous solution, no additive.
Protocol: To further test the effect of AFP on different types of compounds, we tested copper sulfate pentahydrate. The crystal grows from copper sulfate pentahydrate aqueous solutions at room temperature. Seventy milligrams of copper sulfate pentahydrate were dissolved in one milliliter of deionized, milli-Q water. The solution was filtered and left in the air for evaporation. In the presence AFPs, the conditions were all the same except DAFP-1 was added to the solution at the molar ratio of 10^−7 to copper sulfate.
The nature of series [7]: Crystal growth of C by evaporation of aqueous solution, no seed crystals, with polypeptide additives. The series is classed as physicochemical. How it is done: as §1, §2, §3
Series [8] is described as follows: Crystal growth of m^5U by evaporation of aqueous solution, no seed crystals, with polypeptide additives. In kind it is physicochemical. Here is the method: as §1
All the resulting solids were sent to X-ray crystallography laboratory at the Beckman Institute of California Institute of Technology for analysis. The qualities of the solids for single crystal X-ray diffraction were determined (Table 1). […] The resolution of the data was improved compared with that of previously reported data of m^5U. The crystallographic data of m^5U have been deposited in the Cambridge Database (CCDC) and the CCDC deposit number is 835399.
Powder X-ray diffraction (PXRD) data were collected at room temperature on a Rigaku Mini Flex II desktop diffractometer using Cu Kα radiation (30 kV, 15 mA) with a 2θ range of 5°-50°, a step size of 0.010°, and a step time of 2 s. Samples were lightly ground by hand using a mortar and pestle. The same amount of the resulting powders was then mounted and analyzed on a front loading sample holder.
Different amounts of DAFP-1 were added directly to m^5U solution to determine the critical ratio of DAFP-1/m^5U.

[9] abbreviates: optical micrographs, no seed crystals, alone or in the presence of the named additive.

On to `Cc1cn([C@@H]2O[C@H](CO)[C@@H](O)[C@H]2O)c(=O)[nH]c1=O` [form II, 5-methyluridine], for which the “Time until crystals became white opaque powders/blocks” value in series [1] (in air at room temperature) came to 2 months. For the same molecule, in series [2], the “Day the crystallization completes” value was 15 days, the “Day the crystallization starts” value came out at 6 days, the “Average crystal growth rate” value is 10.5 % per day and the “Crystal morphology of the form” value is reported as “block-shaped”.
Consider `Cc1cn([C@@H]2O[C@H](CO)[C@@H](O)[C@H]2O)c(=O)[nH]c1=O` [form I, 5-methyluridine], for which the “Time crystals were stable in air” value in series [1] (in air) is “at least 2 years”. For the same molecule, the “Time without change (appearance, single crystal X-ray diffraction pattern, DSC profile) of the crystals” value in series [1] (left in air at room temperature) was “more than 24 months”. For the same molecule, the “Relative thermodynamic stability of the forms” value in series [3] (DSC enthalpy profiles) is listed as “more thermodynamically stable”. Moreover, the “DSC endotherm associated with water loss” value in series [3] (heated 25 to 200° C. at 5° C./min) was determined as 139.07 °C. For the same molecule, in series [2], the “Day the crystallization completes” value amounted to 9 days, the “Day the crystallization starts” value stood at 3 days, the “Average crystal growth rate” value is listed as 13.3 % per day and the “Crystal morphology of the form” value is “needle-like”.
Consider `OC[C@H]1O[C@H](O[C@H]2O[C@H](CO)[C@@H](O)[C@H](O)[C@H]2O)[C@H](O)[C@@H](O)[C@@H]1O` [trehalose dihydrate], for which the “Size of trehalose dihydrate crystals” value in series [4] was 1-1.5 mm.
With `O=c1[nH]cnc2c1ncn2[C@@H]1O[C@H](CO)[C@@H](O)[C@H]1O` [I, inosine], the “Crystal quality (suitableness of resulting solids for single crystal x-ray diffraction)” value in series [5] (92 mM I, polypeptide 0 μM) was “Yes”. The “Induction time (day of first appearance of solid)” value (“Induction time” for short) in series [5] (92 mM I, polypeptide 0 μM, no seed crystals) is 5 days. In series [5] (setting [9]), the “Morphology of final achieved I solids” value is reported as “hair-like”.
Turning to `O.O.O.O.O.O=S(=O)([O-])[O-].[Cu+2]` [copper sulfate pentahydrate], in series [6], the “Appearance of the crystal (time)” value is 7 days.
On to `Nc1ccn([C@@H]2O[C@H](CO)[C@@H](O)[C@H]2O)c(=O)n1` [C, cytidine], for which, in series [7] (252 mM C, polypeptide 0 μM), the “Crystal quality (suitableness of resulting solids for single crystal x-ray diffraction)” value is reported as “Yes”. The “Induction time” value in series [7] (252 mM C, polypeptide 0 μM, no seed crystals) is 13 days. In series [7] (setting [9]), the “Morphology of final achieved C solids” value is given as “needle-like”.
In the case of `Cc1cn([C@@H]2O[C@H](CO)[C@@H](O)[C@H]2O)c(=O)[nH]c1=O` [m^5U, 5-methyluridine], the “Crystal quality (suitableness of resulting solids for single crystal x-ray diffraction)” value in series [8] (387 mM m^5U, polypeptide 0 μM) is on record as “Yes”. In addition, the “Induction time” value in series [8] (387 mM m^5U, polypeptide 0 μM, no seed crystals) worked out at 6 days. The “Morphology of finally achieved m^5U solids” value in series [8] (setting [9]) is on record as “Needle-like orthorhombic”.
